Source: PMC12858405, “Ideal efficacy photoswitching for chromocontrol of TRPC4/5 channel functions in live tissues” (Nature Chemical Biology, 2026)

Biological target: T1, EA-activated TRPC5 (Mus musculus, UniProt Q9QX29)
T1 construct: expressed in transfected cells; host or cells: HEK293-mTRPC5-YFP
T1 sequence (Q9QX29 1-975): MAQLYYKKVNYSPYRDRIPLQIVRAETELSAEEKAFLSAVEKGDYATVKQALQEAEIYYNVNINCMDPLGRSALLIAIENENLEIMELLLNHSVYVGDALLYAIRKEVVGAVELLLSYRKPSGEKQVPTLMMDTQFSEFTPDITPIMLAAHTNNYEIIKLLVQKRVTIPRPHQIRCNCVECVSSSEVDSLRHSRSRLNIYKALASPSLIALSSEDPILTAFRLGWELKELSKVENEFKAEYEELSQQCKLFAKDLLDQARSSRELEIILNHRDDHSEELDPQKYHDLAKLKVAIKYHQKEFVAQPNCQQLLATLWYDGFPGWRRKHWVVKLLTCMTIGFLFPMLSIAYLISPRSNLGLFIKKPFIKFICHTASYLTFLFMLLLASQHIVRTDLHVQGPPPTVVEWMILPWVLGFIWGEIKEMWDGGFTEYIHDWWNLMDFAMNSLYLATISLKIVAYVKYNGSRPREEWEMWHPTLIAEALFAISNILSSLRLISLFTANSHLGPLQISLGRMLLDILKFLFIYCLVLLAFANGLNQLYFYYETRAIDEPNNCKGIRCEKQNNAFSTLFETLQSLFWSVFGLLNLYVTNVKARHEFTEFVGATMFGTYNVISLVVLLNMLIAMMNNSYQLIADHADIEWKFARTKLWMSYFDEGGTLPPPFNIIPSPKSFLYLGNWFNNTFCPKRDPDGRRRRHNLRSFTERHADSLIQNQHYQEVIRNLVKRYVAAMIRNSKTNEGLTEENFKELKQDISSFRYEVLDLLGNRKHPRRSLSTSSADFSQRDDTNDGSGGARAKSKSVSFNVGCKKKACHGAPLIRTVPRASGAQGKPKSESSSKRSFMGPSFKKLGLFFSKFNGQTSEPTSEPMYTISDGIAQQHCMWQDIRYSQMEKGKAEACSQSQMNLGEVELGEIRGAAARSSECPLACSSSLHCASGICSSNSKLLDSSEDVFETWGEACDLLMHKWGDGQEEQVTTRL
Assay: FLIPR Ca2+ assay, E isomers silencing EA-activated TRPC5 (HEK293-mTRPC5-YFP)
Assay type: cell-based
From the text: Müller, Niemeyer, et al., Schaefer & Thorn-Seshold 2025: Ideal Efficacy Photoswitching of TRPC4/5 in Tissue but it can justify why the affinity of the E/Z-isomers may be similar.
(2) The EC50 values are reported as the midpoints of unconstrained sigmoidal fits to the FLIPR data (Fig 1l and Supplementary Fig. 2): with different levels of channel activation / blocking and very different Hill slopes across different compounds, isomers, and the two channels. This argues that the midpoint values only capture one of the several important factors describing the […]
We believe that it is possible to derive indicative relative values for binding affinity comparing the E and Z isomers of the same compound using only the combination of FLIPR and ephys data as reported in this paper; this analysis is being developed in a separate paper (see also below).
Supplementary Table 1. Potencies on TRPC4/5 depicted as either simple agonistic potency (blue) or else inhibitory […]
. Z*-values refer to mostly-Z-isomer reached at PSS at 365 nm, E*-values refer to experiments that initially applied 100% E-isomer (thermally relaxed), though in both cases the Ca2+ imaging in FLIPR with Fluo4-AM uses 470 nm excitation, which may over time promote photoswitching towards a PSS that is intermediate between those of pure-365 nm and all-E; this is controlled for in the more reliable ephys measurements). (Table indices: a, data from ref7; b, data from ref2; c, data from ref3; d, data from ref8.) EC50 [nM] (for simple agonism or EA-competitive inhibition)
E-AzPico 90 (vs 30 nM EA) 67 (vs 30 nM EA) […]
orange: inhibitory effect ag.: agonistic effect
1.1.1 From always-active antagonists and agonists towards efficacy photoswitches […]
photoisomerising an azobenzene that is merged in at the C’4 position yielding the compounds […]
inhibitory effect for the E-isomers (Supplementary Table 1). Essentially, the effects of Pico145 and AM237 are latent within a single (two-state reversibly photoswitchable) molecule. This combination is what we call an efficacy switch (also see main text Fig. 1e-j).
1.1.2 Mechanistic test for efficacy photoswitching […]
deliver (Fig. 1-2) is a powerful support for an efficacy switch interpretation. To indirectly support this further, we also measured the effects of E-AzPico and E-AzHC against EA-activated TRPC4/5.
Both E-isomers bind to TRPC4/5 and inhibit EA-evoked currents with nanomolar potencies (Supplementary Fig. 2, Supplementary Table 2). This supports the hypothesis that E- […]
to be an EA-competitive binder5,9,10), so their efficacy as single agent photoswitches results from E/Z-competitive binding that is determined by their PSS. […]
Supplementary Table 2. […] (a Inhibitory effect measured against 30 nM EA; b Inhibitory effect measured against 50 nM EA). […]

Cn1c(=O)n(CCCO)c(=O)c2c1nc(Oc1ccc(/N=N/c3ccccc3)c(OC(F)(F)F)c1)n2Cc1ccc(Cl)cc1 [E-AzPico]
IC50 (Inhibitory IC50 (versus 30 nM EA) TRPC5, E isomer, thermally relaxed, 30 nM EA): 0.067 µM
IC50 (Inhibitory IC50 (versus 50 nM EA) TRPC5, E isomer, 50 nM EA): 0.069 µM
